Assay results reported in patent US10266569B2 (priority 2014, dated 2019).
“Also recorded” adds a separate entry of the source.

Key:
CDV = format: cell-based, canine distemper virus
[1] = tested on: NiV (Malaysian isolate UMMC1); format: cell-based, Nipah virus
NiV N = NiV N (Nipah virus, UniProt Q9IK92); format: cell-based
[2] = tested on: NiV (Malaysian isolate UMMC1); format: cell-based, Nipah virus; remark: listed apart in the source

Sequence of NiV N (Q9IK92 whole entry, looked up): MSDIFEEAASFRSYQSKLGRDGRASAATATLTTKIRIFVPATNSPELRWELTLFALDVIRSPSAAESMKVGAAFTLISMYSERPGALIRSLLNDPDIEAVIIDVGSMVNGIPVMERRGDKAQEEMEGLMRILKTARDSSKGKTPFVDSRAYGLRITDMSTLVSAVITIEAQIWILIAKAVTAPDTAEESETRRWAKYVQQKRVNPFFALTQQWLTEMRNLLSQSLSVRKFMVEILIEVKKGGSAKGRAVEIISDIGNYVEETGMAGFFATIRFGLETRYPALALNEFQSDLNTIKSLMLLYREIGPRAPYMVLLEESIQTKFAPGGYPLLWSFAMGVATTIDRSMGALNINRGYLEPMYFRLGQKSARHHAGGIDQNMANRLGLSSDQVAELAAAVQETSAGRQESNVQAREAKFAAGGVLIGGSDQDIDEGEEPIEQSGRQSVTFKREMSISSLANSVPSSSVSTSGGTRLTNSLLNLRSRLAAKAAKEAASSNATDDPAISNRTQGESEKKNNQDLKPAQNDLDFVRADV

MAEEQAYHVSKGLECLKALRENPPDIEEIQEVSSLRDQTC [P40-CDV]
dose dependence of inhibition of CDV replication (CDV): dose-dependant

MDKLELVNDGLNIIDFIQKNQKEIQKTYGRSSIQQPSIKD [P40]
inhibition of NiV viral growth (viral titer in culture supernatant) [1]: significantly inhibits viral growth in a dose-dependent manner; also recorded: inhibited viral replication; also recorded: able to inhibit the replication of Nipah virus | syncytia formation in NiV-infected cells [1]: abolishes syncytia formation | dose dependence of inhibition of CDV replication (CDV): dose-dependant | inhibition of CDV viral growth (virus titer in culture supernatant) (CDV): inhibit viral growth | colocalization with N in the cell (NiV N): colocalization of N with P40 | maintenance of N in a soluble form (NiV N): sufficient to maintain N in a soluble form | inhibition of NiV viral growth (virus titer in culture supernatant) [2]: inhibit viral growth
